Source: patent US11168249B1, “Luminescent polydentate polycyclic compounds for metal ions” (priority 2012, dated 2021)
“Also recorded” adds a separate entry of the source. One block for each molecule: values may come before it.

How the values were obtained:
Assay type in all cases: physicochemical
[1] = Normalized emission spectra of D1 (L) and complexes in dry acetonitrile (FIG. 22); conditions: D1 0.00013 M, metal ion 0.00012 M
Experimental: The concentration of D1 was 0.00013 M, and the metal ion concentration was 0.00012 M. The metal ions are added as perchlorates or acetates. The y-axis is luminescence intensity, and the x-axis is wavelength in nanometers. The free ligand L had maximum emission at 470 nm. The L+Ca(II) complex had maximum emission at 526 nm. The L+Zn(II) complex had maximum emission at 581 nm. The L+trifluoroacetate complex had maximum emission at 592 nm. The L+H^+ complex had maximum emission at 691 nm. The L+H^+ complex was formed using aluminum chloride dissolved in TFA and diluted with dry MeCN, and it is likely that HCl was produced in situ, and that this is protonating the ligand.

[2] = Normalized emission spectra of D1 (L) and complexes in the solid state (FIG. 23)
Description: The y-axis is luminescence intensity, and the x-axis is wavelength in nanometers. The free ligand L had maximum emission at 457 nm. The L+Ca complex had maximum emission at 519 nm. The L+Zn complex had maximum emission at 556 nm. Al/H^+ complex had maximum emission at 651 nm. This latter complex is a protonated ligand obtained by using aluminum perchlorate, which produced acid in situ.
The curve labeled Al/H+(N) was obtained by using protonated ligand obtained by treating the ligand with aluminum perchlorate.

[3] = Fluorescence color of D1 in acetonitrile solution with and without metal ions under UV 365 nm (FIG. 1); conditions: D1 0.004 M
Experimental: FIG. 1 is a set of pictures showing the change in color of derivative compound D1 in the absence and presence of various metal ions (Mg^2+, Sr^2+, Ca^2+, Cd^2+, Zn^2+, H^+) in solution. The solvent was acetonitrile, the concentration of D1 was 0.004 M, and the metal ion concentration was 0.04 M. The metal ions are added as perchlorates or acetates. The solutions were exposed to UV light having an excitation wavelength of 365 nm.
With no metal, the D1 solution was blue. With Mg^2+, the solution was a blue-green color. With Sr^2+, the solution was a green-blue color. With Ca^2+, the solution was a green color. With Cd^2+, the solution was an olive green color. With Zn^2+, the solution was a yellow-orange color. With H^+, the solution was a red color.

[4] = Fluorescence color of D1 in acetonitrile solution with one equivalent of metal perchlorate under UV 365 nm (FIG. 4)
Experimental: FIG. 4 is a set of pictures showing the change in color of derivative compound D1 in the absence and presence of various metal ions (Ca^2+, Zn^2+, H^+, Pb^2+) in solution (perchlorate salts), both under ordinary light and under UV light (365 nm). The solvent was acetonitrile, the concentration of D1 was 0.0001 M, and one equivalent of the metal perchlorate salt was added. For H^+, an aluminum perchlorate salt was used, which produced acid (H^+) that protonated the ligand.
Under UV light, the D1 solution alone is blue. With Ca(II), the solution is green. With Zn(II), the solution is yellow-orange. With Al(III) perchlorate, the solution is red. This red color resulted from an unexpected hydrolysis reaction that produced acid (H^+). The protonated ligand provided the red color. With Pb(II), the solution is black, i.e. the blue color that would other be visible has been quenched.

[5] = Fluorescence color in the solid state with and without metal ions or acids under UV 365 nm (FIGS. 2, 5, 6, 7, 24, 25)
Description: FIG. 2 is a set of pictures showing the change in color of derivative compound D1 in the absence and presence of various metal ions (Ca^2+, Sr^2+, Cd^2+, Zn^2+, Ba^2+, Ha^+, Hb^+, Ni^2+) in the solid state. The sample labeled Ha^+ was isolated from a KOH/ethanol solution after treatment with trifluoroacetic acid (TFA). The sample labeled Hb^+ was obtained by using aluminum perchlorate, which produced acid (H^+) due to an unexpected hydrolysis reaction with the medium.
FIG. 5 is a set of pictures showing the change in color of derivative compound D1 in the absence and presence of various metal ions or acids (Ca^2+, Zn^2+, H^+, Pb^2+) in the solid state, both under ordinary light and under UV light (365 nm). Perchlorate salts were used. When the aluminum salt was used, an unexpected hydrolysis produced acid (H^+) which protonated the ligand.
FIG. 6 is a set of pictures showing the change in color of derivative compound D1 in the absence and presence of various metal ions or acids (H^+, Co^2+, Ni^2+, Cu^2+) in the solid state, both under ordinary light and under UV light (365 nm). Perchlorate salts were used.
FIG. 7 is a set of pictures showing the change in color of derivative compound D1 in the absence and presence of various metal ions or acids (AgNO3, Hg^2+, Pb^2+) and of the free compound D7 (no metal ion) in the solid state, both under ordinary light and under UV light (365 nm).
FIG. 24 is a set of pictures showing the change in color of complexes of D1 with perchlorate salts of various metal ions (Ca^2+, Sr^2+, Cd^2+) in the solid state, both under ordinary light and under UV light (365 nm).
FIG. 25 is a set of pictures showing the change in color of complexes of D1 with salts of various metal ions (Zn^2+, Ba^2+, Ha^+, Hb^+) in the solid state, both under ordinary light and under UV light (365 nm). The zinc and barium are perchlorate salts. The complex labeled “From KOH/EtOH/TFA” was obtained from a solution of KOH and ethanol upon addition of TFA. It is unclear what is causing the orange color, but it is most likely acid, therefore the label “Ha^+”. The HClO4 complex was obtained by using aluminum perchlorate, which produced acid (H^+) that protonated the ligand.
With no metal, the D1 powder was blue. With Ca^2+, the powder was a blue-green color. With Sr^2+, the powder was a green color. With Cd^2+, the powder was a yellow-green color. With Zn^2+, the powder was a yellow color. With Ba^2+, the powder was a dark yellow color. […] Powder isolated from solutions containing AlCl3 or Al(ClO4)3 was a red color. […] With Ni^2+, the powder was black (i.e. fluorescence was quenched).
FIG. 5 is a set of pictures showing fluorescence of D1 in the solid state, under ordinary light (top row) and under UV light (365 nm) (bottom row). In column A, the free ligand sample (i.e. no metal ions) is blue. In column B with Ca(II), the powder is green. In column C with Zn(II), the powder is yellow. In column D with Al(III), the powder is red. Again, this appears to be due to acid (H^+). In column E with Pb(II), the powder is non-fluorescent.
FIG. 6 is a set of pictures showing fluorescence of D1 in the solid state, under ordinary light (top row) and under UV light (365 nm) (bottom row). In the first column ligand treated with La(III) perchlorate produced a powder that fluoresces red. […] In the second column with Co(II), the powder is non-fluorescent. In the third column with Ni(II), the powder is non-fluorescent. In the fourth column with Cu(II), the powder is non-fluorescent.
FIG. 7 is a set of pictures showing fluorescence of D1 in the solid state, under ordinary light (top row) and under UV light (365 nm) (bottom row). In the first column with silver nitrate (AgNO3), the powder is non-fluorescent. […] In the third column with Pb(II), the powder is non-fluorescent. In the fourth column, the free compound D7 is shown, and is non-fluorescent. […]

[6] = Fluorescent properties of L4 in water/chloroform two-layer vials with metal ions and acid (FIG. 8)
Description: FIG. 8 is a set of pictures showing the fluorescent properties of compound L4 in two different solvents (water and chloroform) in the presence of different metal ions o and acid (NaCl, CaCl2), HCl) under ordinary light and under UV light (365 nm). The concentration of L4 was 0.00032 M. Vial #2 used aqueous sodium chloride, Vial #3 included aqueous calcium chloride, and Vial #4 included dilute hydrochloric acid.
FIG. 8 is a set of pictures showing the fluorescent properties of compound L4 in two different solvents (water and chloroform) under ordinary light and under UV light (365 nm). Vial #1 contains only L4, Vial #2 contains sodium chloride, Vial #3 contains calcium chloride, and Vial #4 contains hydrochloric acid. The two layers in each vial were mixed, then allowed to separate and observed. […] There is no reaction to sodium in Vial #2. […] It is believed that this migration will only occur with a metal ion of the proper size and sufficiently high ionic charge. […] Interference from acid is, therefore, not expected to cause false positive results.

maximum emission [1]: 470 nm
maximum emission [2]: 457 nm
SMILES: COc1cccc2cc3c(nc12)-c1nc2c(OC)cccc2cc1CC3 [Compound D1, 8,8′-Dimethoxy-3,3′-dimethylene-2,2′-biquinoline]
color of solution ([3]; Ca^2+ 0.04 M): green
color of solution ([3]; Cd^2+ 0.04 M): olive green
color of solution ([3]; H^+): red
color of solution ([3]; Mg^2+ 0.04 M): blue-green
color of solution ([3]; Sr^2+ 0.04 M): green-blue
color of solution ([3]; Zn^2+ 0.04 M): yellow-orange
color of solution ([3]; no metal): blue
color of solution under UV light ([4]; D1 0.0001 M alone): blue
color of solution under UV light ([4]; D1 0.0001 M, Al(III) perchlorate (produced acid H^+, protonated ligand)): red
color of solution under UV light ([4]; D1 0.0001 M, one equivalent Ca(II) perchlorate): green
color of solution under UV light ([4]; D1 0.0001 M, one equivalent Pb(II) perchlorate): black
color of solution under UV light ([4]; D1 0.0001 M, one equivalent Zn(II) perchlorate): yellow-orange
fluorescence of powder ([5]; free compound (no metal ions)): blue
fluorescence of powder ([5]; from AlCl3 or Al(ClO4)3 (acid H^+, protonated ligand; Hb^+/HClO4)): red
fluorescence of powder ([5]; isolated from ethanolic KOH treated with TFA (Ha^+)): orange
fluorescence of powder ([5]; treated with La(III) perchlorate (acid H^+, protonated ligand)): red
fluorescence of powder ([5]; with Ca^2+): blue-green
fluorescence of powder ([5]; with Cd^2+): yellow-green
fluorescence of powder ([5]; with Co(II)): non-fluorescent
fluorescence of powder ([5]; with Cu(II)): non-fluorescent
fluorescence of powder ([5]; with Hg(II)): barely fluoresces
fluorescence of powder ([5]; with Ni^2+): black; also recorded: non-fluorescent
fluorescence of powder ([5]; with Pb(II)): non-fluorescent
fluorescence of powder ([5]; with Sr^2+): green
fluorescence of powder ([5]; with Zn^2+): yellow
fluorescence of powder ([5]; with silver nitrate (AgNO3)): non-fluorescent

layer in which the compound is present ([6]; Vial #1, only L4 0.00032 M): chloroform layer
migration of the complex between layers ([6]; Vial #3, aqueous calcium chloride): migrated to the water layer
SMILES: CCCCc1c2c(nc3c1CCc1cc4cccc(OCC(=O)OC)c4nc1-3)-c1nc3c(OCC(=O)OC)cccc3cc1CC2 [Compound L4, 8-butyl-1,15-bis(methoxycarbonylmethoxy)-diquinolino[2,3-c:3′,2′-h]-6,7,9,10-tetrahydroacridine]
response to sodium ([6]; Vial #2, aqueous sodium chloride, L4 0.00032 M): no reaction
fluorescent response ([6]; Vial #3, aqueous calcium chloride (Ca^2+), UV 365 nm): intense blue
fluorescence ([6]; Vial #4, dilute hydrochloric acid, UV 365 nm): green
